The results in this text go back to US20080090788A1, “Chemical Compounds” (priority 2005, published 2008).

For test [1], the system named is Hepatic stellate cells (HSC). The test can be described thus: HSC apoptosis by acridine orange staining. Format: cell-based, rat. To be noted: for degree of HSC apoptosis compared with SFZ 1 mM: 3a 0.150 mM, 3e 0.127 mM, 3f 0.089 mM (approximately 5-fold lower concentrations). As to the method:
To determine the effects of SFZ analogues on HSC survival, activated HSC were treated for 24 hrs with SFZ or analogues, and apoptotic HSC were visualised by staining with Acridine orange (1 μg/ml in 10 mM 4-(2-hydroxyethyl)-1-piperazineethanesulfonic acid (Hepes) buffer, pH7.4). The proportion of apoptotic cells in five random fields were counted in duplicate wells at x20 magnification using a fluorescein isothiocyanate filter. Apoptosis of HSC measured by acridine orange correlates closely with activation of caspase 3.
In addition to its role in malignant cells, NF-kB is required for survival of HSC, which play a key role in the pathogenesis of chronic liver disease. The ability of SFZ and analogues to induce HSC apoptosis was also compared. SFZ (1 mM) increased apoptosis ˜4.5-fold in cultured rat HSC (FIG. 5b). […] Therefore, the SFZ analogues with improved NF-kB-inhibiting activity are also relatively potent inducers of HSC apoptosis.
(A) CLL cells from three different patients were cultured in the presence of SFZ or compounds 3a and 3f (all at 0.5 mM), or DMSO as a solvent control. After 6 hours, the degree of PARP cleavage was determined as a measure of apoptosis. […] Note that compound 3f was not tested in cells from patient 3. (B) HSC were cultured in the presence of SFZ (1 mM), compounds 3a (0.150 mM), 3e (0.127 mM), 3f (0.089 mM), or DMSO as a solvent control. Analogues were used at the concentration that gave 50% inhibition of NF-kB transcriptional activity in U937 cells. After 20 hours, the proportion of apoptotic cells were visualised by acridine orange staining. Apoptotic cells were counted in five fields in duplicate for each concentration, in two independent experiments and results expressed as mean ±SEM,

Test [2] concerns AP-1 transcription factor binding sites. In words: AP-1 reporter construct luciferase activity in transfected activated HSC. Format: cell-based. The following applies: SFZ 1 mM, 3a 0.150 mM, 3e 0.127 mM, 3f 0.089 mM, 24 hours, rat HSC. As to the method:
For HSC transfections, activated HSC were transfected by the non-liposomal Effectene protocol (Qiagen, UK) using 1 μg reporter plasmid DNA and 10 ng of control Renilla plasmid pRLTK (Promega, Southampton, UK) according to the manufacturer's instructions. After 24 hours, HSC were treated with test compounds for a further 24 hours. Luciferase assays were performed using a dual luciferase kit (Promega) according to the manufacturer's instructions. Firefly luciferase activities were normalised for differences in transfection efficiency by measurement of the activity of the co-transfected pRLTK. The pIκBα wt-Luc plasmid contains nucleotides −332 to +35 of the human IkB-α promoter cloned upstream of luciferase gene (Oakley F, et al, J Biol Chem 2003; 278: 24359-70). The pTIMP1-Luc plasmid contains the 162 bp human TIMP1 minimal promoter cloned upstream of luciferase gene (Bertrand-Philippe M, et al. J Biol Chem 2004; 279: 24530-9). The pAP1-Luc plasmid (Stratagene, UK) contains 7 copies of a consensus AP-1 binding site upstream of the minimal promoter and the luciferase gene.
To extend these findings, further analyses were performed using the […] promoter which contains multiple NF-kB binding sites and is a well studied NF-kB target. […] Consistent with the presence of activated NF-kB in HSC, (Wright M C et al, Gastroenterology 2001; 121: 685-98.) the IkB-α promoter was activated in HSC (FIG. 2a). SFZ (1 mM) inhibited promoter activity by >60%. […] Therefore, the improved inhibitory activity of analogues 3a, 3e and 3f is specific for NF-kB mediated transcription and is not restricted to U937 cells or artificial promoter constructs.
Rat HSC were transfected with (A) IkB-α-Luc, (B) TIMP1-Luc or (C) pAP-1-Luc reporter constructs. After 24 hours, cells were treated with sulfasalazine (1 mM), 3a (0.150 mM), 3e (0.127 mM), 3f (0.089 mM), or treated with DMSO as a control. Luciferase activity was determined after another 24 hours. Data presented are mean luciferase activity (±SEM) relative to control cells (value set to 100), derived from two separate experiments, each performed in duplicate and using an independent preparation of HSC.

`COc1ccc(CNS(=O)(=O)c2ccc(/N=N/c3ccc(O)c(C(=O)O)c3)cc2)cc1` [Compound 3a, 2-hydroxy-5-[4-(4-methoxy-benzylsulfamoyl)-phenylazo]-benzoic acid]: the “degree of HSC apoptosis compared with SFZ 1 mM” value in test [1] was “approximately the same degree of apoptosis”. The “effect on activity of AP-1 reporter construct” value (“effect on activity” for short) in test [2] is listed as “neither SFZ or the analogues interfered”.
On the same counts, the results for `Cc1cc(/N=N/c2ccc(S(=O)(=O)NCc3ccc(C(F)(F)F)cc3)cc2)cc(C(=O)O)c1O` [Compound 3e, 2-hydroxy-3-methyl-5-[4-(4-trifluoromethyl-benzylsulfamoyl)-phenylazo]-benzoic acid] are “approximately the same degree of apoptosis” and “neither SFZ or the analogues interfered”.
Regarding `O=C(O)c1cc(/N=N/c2ccc(S(=O)(=O)NCc3ccc(C(F)(F)F)cc3)cc2)ccc1O` [Compound 3f, 2-hydroxy-5-[4-(4-trifluoromethyl-benzylsulfamoyl)-phenylazo]-benzoic acid], in test [1], the “degree of HSC apoptosis compared with SFZ 1 mM” value is listed as “approximately the same degree of apoptosis”. Further, in test [2], the “effect on activity” value is listed as “neither SFZ or the analogues interfered”.
For `O=C(O)c1cc(/N=N/c2ccc(S(=O)(=O)Nc3ccccn3)cc2)ccc1O` [SFZ, Sulfasalazine, reference compound], in test [1] (SFZ 1 mM, cultured rat HSC), the “increase in apoptosis of cultured HSC” value is given as around 4.5 fold. The “effect on activity” value in test [2] is on record as “neither SFZ or the analogues interfered”.
